The results in this text go back to patent US5122515A, “Nutrient composition containing dipeptides and method for administering the same” (priority 1990, dated 1992).

Structures are written as SMILES.

What is called half-life is the time needed for the level to fall by half in the phase considered.

Series [1] is described as follows: In vitro clearance of tyrosyl-arginine in human whole blood. The method, then:
Supplementation of an intravenous nutrition solution with the dipeptide tyrosyl-arginine facilitates the infusion of the poorly soluble amino acid tyrosine. We have initiated the first investigations into the metabolism of exogenous tyrosyl-arginine (TryArg). In vitro clearance of tyrosyl-arginine, and the constituent amino acids arginine and tyrosine was assessed in blood from two healthy normal volunteers on five occasions. Whole blood was incubated with tyrosyl-arginine (initially 547 nmol/ml) at 37°°C. for 40 minutes. Throughout this period samples were taken to determine concentration of the dipeptide and individual amino acids.

Series [2] in a line: In vivo clearance of tyrosyl-arginine after intravenous bolus in rats. Also noted: species or system Sprague Dawley rats. Conditions: rat. The method, then: In vivo clearance was assessed in five large (370 g) mature (122 days old) Sprague Dawley rats. The animals were anaesthetised with sodium pentabarbitone and remained anaesthetised during the entire procedure. A large bolus of tyrosyl-arginine (82.1 2.8 μg/g rat, Mean SD) was injected intravenously into a central vein and rapid blood samples (n=11) (total volume=2.0 ml) were obtained through a central venous catheter over 20 minutes. We observed that tyrosyl-arginine was cleared rapidly by rats with an approximate half life of 30 seconds. There was a large and rapid rise in Arg concentration reaching a maximum after 2.5 min and falling to baseline levels after 20 minutes.

In the case of `N=C(N)NCCC[C@H](N)C(=O)O` [Arg, arginine], in series [1], the “time over which the concentration, after its rise, fell to baseline” value stood at 2 h. Further, in series [2] (iv), the “time of fall to baseline levels” value is 20 min and the “time to maximum concentration” value was found to be 2.5 min.

Regarding `N[C@@H](Cc1ccc(O)cc1)C(=O)O` [Tyr, tyrosine], in series [1], the “time over which the concentration, after its rise, fell to baseline” value turned out to be 2 h.

Turning to `N=C(N)NCCC[C@H](NC(=O)[C@@H](N)Cc1ccc(O)cc1)C(=O)O` [Tyr--Arg, tyrosyl-arginine], the “time by which degradation was complete” value in series [1] (human whole blood, 37°C) was at most 2 h. This molecule also displayed a half-life at 547 nmol/ml in series [1] (human, blood) of 4.2 min. For the same molecule, the “concentration in whole blood (mean)” value in series [1] (time 0 min, human whole blood incubated with tyrosyl-arginine (initially 547 nmol/ml) at 37°C) was 547 µM; in series [1] (time 0.5 min, human whole blood incubated with tyrosyl-arginine at 37°C) it was 389.85 µM; in series [1] (time 1.0 min, human whole blood incubated with tyrosyl-arginine at 37°C), 338.65 µM; in series [1] (time 2.0 min, human whole blood incubated with tyrosyl-arginine at 37°C), 278.94 µM; in series [1] (time 5.0 min, human whole blood incubated with tyrosyl-arginine at 37°C) it was 245.52 µM; in series [1] (time 10.0 min, human whole blood incubated with tyrosyl-arginine at 37°C), 220.90 µM. Besides, the “concentration in whole blood (mean)” value in series [1] (time 20.0 min, human whole blood incubated with tyrosyl-arginine at 37°C) was found to be 149.77 µM; in series [1] (time 40.0 min, human whole blood incubated with tyrosyl-arginine at 37°C), 547.0 µM; in series [1] (time 60.0 min, human whole blood incubated with tyrosyl-arginine at 37°C), 55.57 µM; in series [1] (time 120.0 min, human whole blood incubated with tyrosyl-arginine at 37°C), 0 µM. Also, the half-life in series [2] (Sprague Dawley, 82.1 μg/g rat, anaesthetised rats, intravenous bolus of tyrosyl-arginine into a central vein, read-out: approximate half life (in vivo clearance) (converted)) is about 0.5 min.
